Results taken from US9980927B2, “Use of tapentadol for inhibiting and/or treating depression and anxiety” (Gruenenthal GmbH, priority 2011, dated 2018).

Experiments:
[1] = test system: patients with inadequately managed, severe chronic low back pain with or without a neuropathic pain component; assay: Subject satisfaction with previous/new treatment, same trial; type: in vivo, human patients; conditions: 0.0% at Baseline
Text: This was a multicenter, multinational, open-label, effectiveness phase IIIb trial to evaluate effectiveness and safety of tapentadol prolonged release treatment in patients with inadequately managed, severe chronic low back pain with or without a neuropathic pain component. Patients taking WHO Step II analgesics discontinued those analgesics before starting study medication; patients taking Step I analgesics and/or centrally acting co-analgesics continued on the same dose. […] All patients received tapentadol prolonged release (50-250 mg bid) for up to 12 weeks (5-week titration period and a 7-week maintenance period). Tapentadol immediate release (IR) 50 mg (twice a day, hours apart) was permitted (combined total daily dose of tapentadol prolonged release and tapentadol IR, 500 mg/day). The primary efficacy endpoint was the change from Baseline to Week 6 (when tapentadol prolonged release doses were stable) in average pain intensity on the 11-point NRS-3 using the last observation carried forward (LOCF) for imputing missing scores. The painDETECT questionnaire was used to evaluate the likelihood of a neuropathic pain component of low back pain; patients were classified as painDETECT “negative,” “unclear,” or “positive.” The population of patients classified as painDETECT negative was limited to approximately 30% of the total population.

[2] = test system: patients with inadequately managed, severe chronic low back pain with or without a neuropathic pain component; assay: EuroQol-5 Dimension (EQ-5D) health status index score, same trial; type: in vivo, human patients; conditions: Baseline to Week 12
Text: This was a multicenter, multinational, open-label, effectiveness phase IIIb trial to evaluate effectiveness and safety of tapentadol prolonged release treatment in patients with inadequately managed, severe chronic low back pain with or without a neuropathic pain component. Patients taking WHO Step II analgesics discontinued those analgesics before starting study medication; patients taking Step I analgesics and/or centrally acting co-analgesics continued on the same dose. […] All patients received tapentadol prolonged release (50-250 mg bid) for up to 12 weeks (5-week titration period and a 7-week maintenance period). Tapentadol immediate release (IR) 50 mg (twice a day, hours apart) was permitted (combined total daily dose of tapentadol prolonged release and tapentadol IR, 500 mg/day). The primary efficacy endpoint was the change from Baseline to Week 6 (when tapentadol prolonged release doses were stable) in average pain intensity on the 11-point NRS-3 using the last observation carried forward (LOCF) for imputing missing scores. […]
All subjects completed Short Form-36 (SF-36) and EuroQol-5 Dimension (EQ-5D) questionnaires and the Hospital Anxiety and Depression Scale (HADS). […] Adverse events were recorded throughout the trial.

Q: `CC[C@@H](c1cccc(O)c1)[C@@H](C)CN(C)C` [tapentadol, (−)-(1R,2R)-3-(3-dimethylamino-1-ethyl-2-methyl-propyl)-phenol] was tested. Which “percentage of patients rating satisfaction with treatment “excellent” or “very good”” value ([1]; Week 6 (41/138)) did it give?
A: 29.7%

Q: What about the “percentage of patients rating satisfaction with treatment “excellent” or “very good”” value ([1]; Week 12 (48/91)) of the same compound?
A: 52.8%

Q: What about the “mean (SD) change in the EQ-5D health status index score” value ([2]; patients painDETECT negative, P=0.0022) of the same compound?
A: 0.18

Q: And the “mean (SD) change in the EQ-5D health status index score” value ([2]; patients painDETECT positive, P<0.0001)?
A: 0.36 (0.32)
